ChEMBL document CHEMBL3872220, “Amphiphilic xanthones as a potent chemical entity of anti-mycobacterial agents with membrane-targeting properties” (Eur J Med Chem, 2016)
Values after ≈ are worked out from the molar mass of the structure shown.

The compounds below were run on Mycobacterium tuberculosis variant bovis (assay: Antimycobacterial activity against Mycobacterium bovis BCG ATCC 35734 after 5 days by broth dilution assay). Settings: ATCC 35734, 120 h.
Assay type: functional

Row | Compound | MIC90 [µM]
1 | COc1c(OCC(O)CNCCN)cc2oc3cc(OCC(O)CNCCN)c(CC=C(C)C)c(O)c3c(=O)c2c1CC=C(C)C (centres undefined) | > 30
2 | CCN(CC)CCCOc1cc2oc3cc(OCCCN(CC)CC)c(OC)c(CC=C(C)C)c3c(=O)c2c(O)c1CC=C(C)C | 6.4 (≈ 4.08 µg/mL)
3 | CCN(CC)CC(O)COc1cc2oc3cc(OCC(O)CN(CC)CC)c(OC)c(CC=C(C)C)c3c(=O)c2c(O)c1CC=C(C)C (centres undefined) | 6.4 (≈ 4.28 µg/mL)
4 | CCN(CC)CCOc1cc2oc3cc(OCCN(CC)CC)c(OC)c(CC=C(C)C)c3c(=O)c2c(O)c1CC=C(C)C | 6.4 (≈ 3.9 µg/mL)
5 | COC(=O)C(CCCNC(=N)N)NC(=O)COc1cc2oc3cc(OCC(=O)NC(CCCNC(=N)N)C(=O)OC)c(OC)c(CC=C(C)C)c3c(=O)c2c(O)c1CC=C(C)C (centres undefined) | 12.8 (≈ 11.1 µg/mL)
6 | CCN(CC)CCCCOc1cc2oc3cc(OCCCCN(CC)CC)c(OC)c(CC=C(C)C)c3c(=O)c2c(OCCCCN(CC)CC)c1CC=C(C)C | 6.4 (≈ 5.07 µg/mL)
7 | CCN(CC)CCCCOc1ccc2c(=O)c3c(O)cc(OCCCCN(CC)CC)cc3oc2c1 | > 30
8 | CC[C@@H](CO)NCCN[C@@H](CC)CO [ETHAMBUTOL] | 6.25 (≈ 1.28 µg/mL)
9 | CO[C@H]1/C=C/O[C@@]2(C)Oc3c(C)c(O)c4c(O)c(c(/C=N/N5CCN(C)CC5)c(O)c4c3C2=O)NC(=O)/C(C)=C\C=C\[C@H](C)[C@H](O)[C@@H](C)[C@@H](O)[C@@H](C)[C@H](OC(C)=O)[C@@H]1C [RIFAMPIN] | 0.02 (≈ 0.0165 µg/mL)
10 | COc1c(OCC(O)CNCCNCCNCCN)cc2oc3cc(OCC(O)CNCCNCCNCCN)c(CC=C(C)C)c(O)c3c(=O)c2c1CC=C(C)C (centres undefined) | > 30
11 | CCN(CC)CCCCCCCOc1cc2oc3cc(OCCCCCCCN(CC)CC)c(OC)c(CC=C(C)C)c3c(=O)c2c(O)c1CC=C(C)C | 6.4 (≈ 4.79 µg/mL)
12 | COc1c(OCC(O)CNCCNC(=N)N)cc2oc3cc(OCC(O)CNCCNC(=N)N)c(CC=C(C)C)c(O)c3c(=O)c2c1CC=C(C)C (centres undefined) | > 30
13 | COc1c(OCC(O)CNC(CO)(CO)CO)cc2oc3cc(OCC(O)CNC(CO)(CO)CO)c(CC=C(C)C)c(O)c3c(=O)c2c1CC=C(C)C (centres undefined) | > 30
14 | COc1c(OCC(=O)NC(CCCNC(=N)N)C(N)=O)cc2oc3cc(OCC(=O)NC(CCCNC(=N)N)C(N)=O)c(CC=C(C)C)c(O)c3c(=O)c2c1CC=C(C)C (centres undefined) | > 30
15 | CN[C@@H]1[C@H](O[C@H]2[C@H](O[C@H]3[C@H](O)[C@@H](O)[C@H](N=C(N)N)[C@@H](O)[C@@H]3N=C(N)N)O[C@@H](C)[C@]2(O)C=O)O[C@@H](CO)[C@H](O)[C@H]1O [STREPTOMYCIN] | 0.39 (≈ 0.227 µg/mL)
16 | COC(=O)C(Cc1cnc[nH]1)NC(=O)COc1cc2oc3cc(OCC(=O)NC(Cc4cnc[nH]4)C(=O)OC)c(OC)c(CC=C(C)C)c3c(=O)c2c(O)c1CC=C(C)C (centres undefined) | > 30
17 | COc1c(OCCCCN2CCSCC2)cc2oc3cc(OCCCCN4CCSCC4)c(CC=C(C)C)c(O)c3c(=O)c2c1CC=C(C)C | 30 (≈ 21.8 µg/mL)
18 | CCCCN(CC)CCCCOc1cc2oc3cc(OCCCCN(CC)CCCC)c(OC)c(CC=C(C)C)c3c(=O)c2c(O)c1CC=C(C)C | 3.2 (≈ 2.31 µg/mL)
19 | COc1c(OCCCCN(C)C)cc2oc3cc(OCCCCN(C)C)c(CCC(C)C)c(O)c3c(=O)c2c1CCC(C)C | 6.4 (≈ 3.92 µg/mL)
20 | CCCN(CCC)CC(O)COc1cc2oc3cc(OCC(O)CN(CCC)CCC)c(OC)c(CC=C(C)C)c3c(=O)c2c(O)c1CC=C(C)C (centres undefined) | 6.4 (≈ 4.64 µg/mL)
21 | NNC(=O)c1ccncc1 [ISONIAZID] | 6.25 (≈ 0.857 µg/mL)
22 | COc1c(OCCCCN2CCOCC2)cc2oc3cc(OCCCCN4CCOCC4)c(CC=C(C)C)c(OCCCCN4CCOCC4)c3c(=O)c2c1CC=C(C)C | 12.8 (≈ 10.7 µg/mL)
23 | CCN(CC)CCCCOc1cc2oc3cc(OCCCCN(CC)CC)c(OC)c(CCC(C)C)c3c(=O)c2c(O)c1CCC(C)C | 6.4 (≈ 4.28 µg/mL)

What follows are compounds tested on Mycobacterium tuberculosis variant bovis (assay: Bactericidal activity against Mycobacterium bovis BCG ATCC 35734 assessed as log reduction in bacterial colonies up to 8 times MIC measured after 24 hrs by time-kill assay). Settings: not given.
Assay type: functional, Mycobacterium tuberculosis variant bovis BCG

Row | Compound | Activity
24 | NNC(=O)c1ccncc1 [ISONIAZID] | 2.6
